Test results reported in patent US20240076626A1, “HYDROGEN PEROXIDE EVOLVED HOST CELL” (MedImmune Limited, priority 2020, published 2024).

How the values were obtained:
H2O2 evolved host cells [1] = assay: ChemStress assay, survival with prooxidant chemical compounds (PrestoBlue); type: cell-based, Chinese hamster; conditions: 72 hours growth in the presence of the stressor
Procedure: To confirm the H2O2 evolved host cell's ability to resist oxidative stress, the cells were evaluated for survival in response to several prooxidant chemical compounds selected to mimic bioreactor stressors: […] These chemicals affect a diverse subset of intracellular redox pathways such as those involved in GSH biosynthesis and turnover (BSO and MS) (Lee et al. (1992) “Effects of buthionine sulfoximine treatment on cellular glutathione levels and cytotoxicities of cisplatin, carboplatin and radiation in human stomach and ovarian cancer cell lines”. Korean J Intern Med. 7(2):111-7; Dunning et al. (2013) “Glutathione and antioxidant enzymes serve complementary roles in protecting activated hepatic stellate cells against hydrogen peroxide-induced cell death”. Biochim Biophys Acta. 1832(12):2027-34), intracellular ROS generation (MSB) (Beck et al. (2011) “Ascorbate/menadione-induced oxidative stress kills cancer cells that express normal or mutated forms of the oncogenic protein Bcr-Abl. An in vitro and in vivo mechanistic study”. […] J Neurosci Res. 64(6):646-53). Chem stress assays were performed according to the manufacturer's instructions (ChemStress®, […], Ireland). In brief, CHO or H2O2 evolved host cells were seeded into […] ChemStress plates (ChemStress®, […], Ireland) at 18,000 cells/well in 90 μl proprietary medium supplemented with 6 mM L-glutamine. A control well was incubated with medium alone. Plates were incubated for 72-hours in a static incubator at 36.5° C., 6% CO2. Following this, 10 μl of neat PrestoBlue dye (Thermo Fisher Scientific, UK) was added to all wells before plates were mixed for 20 seconds and incubated for a further 30 minutes at 36.5° C., 6% CO2. Plates were analyzed using a PHERAstar plate reader (BMG LABTECH, Ortenberg, Germany) with preconfigured protocols (excitation 560 nm, emission 590 nm). Data was analyzed, using the […] software ([…], Ireland).

H2O2 evolved host cells [2] = assay: cells; conditions: Cricetulus griseus
Procedure: The H2O2 evolved host and CHO control host were passaged to 90 PDL and 7 PDL respectively in CD-CHO supplemented with 6 mM glutamine after which both hosts were re-challenged with 37 mM H2O2 and viabilities recorded (viability measured on days 1, 2, 4, 7, 10, 11 and 12)
Specifically, CHO-K1 cells adapted to grow in suspension culture (CHO Control) were revived in chemically-defined (CD) CHO medium (Life technologies, Paisley, UK) supplemented with 6 mM L-glutamine (Life technologies, Paisley, UK) and passaged three times at 0.2×10^6 cells/ml in a 30 ml culture volume. When cells reached 99% viability, they were incubated for 1 hour with 14 mM H2O2 (Sigma-Aldrich, UK) before centrifugation at 130 g for 5 minutes and resuspended in 30 ml fresh CD CHO supplemented with 6 mM L-glutamine. CHO cells were left to recover until cells reached 70% viability. This process was repeated an additional three times resulting in a total of four exposures to 14 mM H2O2, in which cells gradually recovered over a period of 10-20 days, with the medium being replenished periodically, until cells reached 70% viability. The cells were then subjected to one round of 18.5 mM H2O2 treatment following the method above until cells reached 90% viability. […]

H2O2 evolved host B = assay: Survival of BisAb-expressing pools in the presence of MSB (Vi-Cell viability); type: cell-based, Chinese hamster; conditions: 6 μM MSB, up to 72 hours, cells expressing BisAb B, versus H2O treated control
Procedure: (§1) Expressing pools were compared for survival in the presence of the widely used prooxidant, menadione sodium bisulphite (MSB). Briefly, CHO Control or H2O2 evolved host cells expressing BisAbs A or BisAb B were seeded at 0.3×10^6 cells/ml into 30 ml of proprietary medium supplemented with 50 μM MSX. A total of 6 μM Menadione Sodium Bisulfite (MSB) (Sigma-Aldrich, UK) or water was added to test and control cultures, respectively. Cells were assessed for viability and viable cell density (VCD) using a Vi-Cell XR Cell Viability Analyser (Beckman Coulter, USA) at 24, 48 and 72 hours post addition of MSB or water.

H2O2 evolved host A = assay: as above; type: cell-based, Chinese hamster; conditions: 6 μM MSB, up to 72 hours, cells expressing BisAb A, versus H2O treated control
Procedure: as §1

CCCCS(=N)(=O)CCC(N)C(=O)O (stereo not shown) [BSO, Buthionine Sulfoximine]
viability of H2O2 evolved host cells compared to CHO control cells (H2O2 evolved host cells [1]): significantly improved viabilities

[Cl][Co][Cl] [CoCl, Cobalt chloride]
viability of H2O2 evolved host cells compared to CHO control cells (H2O2 evolved host cells [1]): significantly improved viabilities

OO [H2O2, hydrogen peroxide]
viability at 37000 µM (H2O2 evolved host cells [2]): ~50%

O=C(O)CC(S)C(=O)O (stereo not shown) [MS, Mercaptosuccinic Acid]
viability of H2O2 evolved host cells compared to CHO control cells (H2O2 evolved host cells [1]): significantly improved viabilities

CC1(S(=O)(=O)[O-])CC(=O)c2ccccc2C1=O.[Na+] (stereo not shown) [MSB, Menadione Sodium Bisulphite]
viability of H2O2 evolved host cells compared to CHO control cells (H2O2 evolved host cells [1]): significantly improved viabilities
viability (H2O2 evolved host B): comparable with H2O treated controls
viability (H2O2 evolved host A): comparable with H2O treated controls
